The record followed here is US20220401428A1, “Method for Treatment of Alzheimer's Disease” (University of Kentucky Research Foundation, priority 2019, published 2022).

Entries after “also recorded” stand apart in the source; their conditions may differ.

For one series, the system named is LRP1. Kind of series: LRP1 protein expression in rat brain microvascular ECs (Western blot, immunofluorescence). The series is classed as cell-based. The note with it: ECs, 24 hours, Western blot. The text has this:
To study the role of miRNA signaling in amylin-induced suppression of endothelial LRP1 expression, transfection of rat brain microvascular ECs was used with miR-103-3p (MCR01039)[…](SEQ ID NO: 5), miR-107-3p (MCR01045)[…](SEQ ID NO: 6) and control (MCH00000) (https://www.abmgood.com/mirna-mimic-negative-control-mch00000.html). Antagomir miR-103-3p (IH-320345-05-0005)(SEQ ID NO: 5), miR-107-3p (IH-320348-05-0005)(SEQ ID NO: 6) and negative control (IN-001005-01-05) (https://www.biocompare.com/22445-RNA/4995709-miRIDIAN-microRNA-Hairpin-Inhibitor-Negative-Control-1-5-nmol/#productspecs) (Dharmacon Inc.) were used in an attempt to rescue LRP1 expression. All transfections were done using RNAiMAX (Invitrogen) as per manufacturer's recommended protocol. Briefly, ECs were plated at 50% confluency in 6-well plates followed by co-transfection with either 100 nM of 103-3p and 107-3p mimics or antagomirs along with their respective negative controls. After 12-hours, antagomir-treated cell groups were further treated with 10 uM human amylin for 24-hours. After 36-hours of transfection, cells were harvested for Western blot analysis.
In immunofluorescence experiments, formalin-fixed, paraffin-embedded human brain tissue was used and processed as previously described^16,18,39, brain capillaries from HIP and WT rats isolated as previously described^18. and cultured ECs. Anti-amylin (1:200; clone E5; SC-377530; Santa Cruz), anti-collagen IV (1:500; ab6586; abcam), anti-alpha smooth muscle actin-Alexa Fluor 405 (1:200; ab210128, abcam), anti-caveolin-1 (1:100; sc-894; Santa Cruz, Tex.), anti-LRP1 (1:500; sc-57351; Santa Cruz), anti-4HNE (1:200; ab46545; abcam) were the primary antibodies. Secondary antibodies were: Alexa Fluor 488 conjugated anti-mouse IgG (1:300; A11029; Invitrogen), Alexa Fluor 568 conjugated anti-rabbit IgG (1:200; A11036; Invitrogen), Alexa Fluor 568 conjugated anti-mouse IgG (1:300; A11004; Invitrogen). Nuclei were counterstained with DAPI mounting media. For triple staining of human brain tissues, smooth muscle actin-Alexa Fluor 405 antibody was added after staining with human amylin and collagen IV; DAPI free mounting media was used. For Thioflavin S staining, after secondary antibody incubation, brain slides were incubated in 0.5% Thioflavin S for 30 minutes at room temperature. Slides were then incubated for 3 minutes in 70% ethanol, 5 minutes in 0.2% Sudan black before washing and mounting. Immunocytochemistry was performed as described previously (39, 40).
Western blot analysis was performed on isolated brain capillaries, brain tissue homogenate and plasma from rats. Tissues were processed as described previously^16,18,28,39. RIPA buffer with 2% SDS was used to retrieve Aβ monomers from frozen brain samples^41. […]

The subject of series [1] is EC monolayer. Kind of series: Structural integrity of the EC monolayer in the in vitro BBB model (TEER, FITC-Dextran, morphology). The series is classed as cell-based, rat. Conditions: 10 μM, 24 hours. As to the method: (§1) In vitro BBB model of Aβ42 transcytosis with amylin-induced stress at the blood side. An in vitro BBB model described previously^37 was used with modifications related to amylin deposition on the EC monolayer and consequent effects on the Aβ transport across the EC monolayer. Briefly, primary rat brain microvascular endothelial cells (Cell Applications Inc) were plated on 24-well Transwell-Clear inserts with 0.4 μm pore polycarbonate membrane (Costar, Corning, N.Y., USA) and primary rat brain astrocytes (Sigma) were cultured at the bottom wells. Barrier integrity was measured from the trans-endothelial electrical resistance (TEER) as described previously^37,38 using the EVOM2 meter with STX-3 electrodes (World Precision Instruments). Maximum TEER was achieved within 8-10 days in culture. BBB permeabilities to human amylin (10 μM; Anaspec; AS-60254-1), rat amylin (10 μM; American Peptide) and DMSO (1 mM; vehicle) were assessed using FITC-Dextran 4 kDa (Fisher Scientific) diluted in Hank's Balanced Salt Solution (HBSS) buffer with 0.1% BSA (HBSS-BSA) as a paracellular diffusion marker. Permeability coefficients were calculated using the formula; P=(ΔQ/Δt)/(A*C0), (ΔQ/Δt)=rate of FITC-Dextran change; A=surface area of insert (0.33cm^2); C0=Initial FITC-Dextran input.

Series [2] relates to rat brain microvascular endothelial cells. Kind of series: MTS cytotoxicity assay on ECs. In kind it is cell-based. The note with it: 500 nM, 1 μM, 5 μM and 10 μM, 24 hours. From the text:
CellTiter 96® AQueous One Solution Cell Proliferation Assay (MTS) (Promega) was used to assess cytotoxicity of aggregated amylin on the EC monolayer.

Another series relates to miR-103 and miR-107. Kind of series: miR-103 and miR-107 expression in ECs by qRT-PCR. The note with it: ECs incubated with human amylin. The series is classed as cell-based, rat. From the text: (§2) Total RNA was isolated using RNAqueous total RNA isolation kit according to manufacturer's protocol (Invitrogen, AM1914). cDNA synthesis and amplification were done using iTaq Universal SYBR Green One-Step Kit (Biorad; 1725151) with the following primer sequences: LRP1: forward (Fwd) 5′-[…]-3′(SEQ ID NO: 7), reverse (Rev) 5′-[…]-3′(SEQ ID NO: 8); and GAPDH: Fwd 5′- […]-3′(SEQ ID NO: 9), Rev 5′-GTTTGCTCCAACCAACTGC-3′(SEQ ID NO: 10) (IDT, Inc, USA). For miRNA quantification, cDNA was synthesized from total RNA using miRNA cDNA synthesis kit with poly (A) polymerase (ABMgood, G902). cDNA was amplified using SYBR Green mastermix (Biorad) along with miRNA specific primers from (rno-miR-103-3p, MPR00332; rno-miR-107-3p, MPRO0335; RNU6 house Keeping gene, MP-r99998) (ABMgood). Data were analyzed using the 2^−ΔΔCt method, and experiments were normalized to GAPDH or U6 miRNA
In general terms: Quantitative PCR measures a nucleic acid by following its amplification.

The subject of series [3] is rat brain microvascular ECs. Kind of series: Lipid peroxidation and ROS in cultured rat brain microvascular ECs. In kind it is cell-based. Conditions: 10 μM amylin, 24-hour incubation. As to the method:
Lipid peroxidation and ROS were measured in cultured rat brain microvascular ECs using previously published protocols^26,39.

In series [4] the test system is EC monolayer. Kind of series: Aβ42 transcytosis across the in vitro BBB model. The series is classed as cell-based, rat. The note with it: 10 μM at the luminal side for 24 hours, then Aβ42-FAM at the abluminal side for 1 hour; vs vehicle; P<0.05. As to the method:
as §1, with “input. […]” for “input.”

The test system of another series is LRP1 mRNA. Kind of series: LRP1 mRNA levels in ECs by qRT-PCR. The note with it: 10 μM, vs control cells and ECs incubated with rat amylin. The series is classed as cell-based.
Excerpt: as §2

Consider human amylin, for which, in the series on LRP1 (10 μM), the “reduction of LRP1 expression” value is listed as “more than 50%”. The “LRP1 protein levels against concentration” value with LRP1 (various concentrations (500 nM to 10 μM)) is “decreased with increasing concentrations”. In the series on EC monolayer [1], the EC monolayer morphology result is recorded as “neither the intercellular space, as assessed from FITC-dextran permeability (FIG. S4C-D), nor EC monolayer morphology (FIG. 18E) were significantly altered”; the TEER entry is “decreased”; the “intercellular space assessed from FITC-dextran (4 kDa) permeability” value was “neither the intercellular space, as assessed from FITC-dextran permeability (FIG. S4C-D), nor EC monolayer morphology (FIG. 18E) were significantly altered”. Besides, the “viability of the ECs” value in series [2] was “not significant; also recorded: not affected”. Also, the “miR-103 and miR-107 levels” value in the series with miR-103 and miR-107 was “elevated levels of miR-103 and miR-107”. For the same substance, in series [3], the “generation of ROS” value is listed as “increased generation of ROS” and the “lipid peroxidation of the EC membranes” value was “lipid peroxidation of the EC membranes”. In the series on EC monolayer [4], the “reduction of the Aβ transcytosis quotient” value was 20+5%. The “LRP1 mRNA levels” value in the series with LRP1 mRNA was “greatly elevated”.
